For 24 molecules, IC50 results are on record in patent US11472769B2, “SSAO inhibitors and use thereof” (Eccogene (Shanghai) Co., Ltd., priority 2019, dated 2022).

Format in all cases: biochemical
For one experiment, the target named is recombinant hSSAO (Homo sapiens (Human), UniProt Q16853). The experiment in a line: SSAO Activity Assay (MAO-Glo assay kit). The conditions noted are these: 40 μM substrate, 30 mins pre-incubation. The method, then:
(§1) The biological activities of the compounds of the present application can be assessed with methods and assays known in the art. For example, the potency of the compounds of the present application can be evaluated with an SSAO Activity Assay. Briefly, compounds of the present application can be applied to recombinant hSSAO, hMAO-A, and hMAO-B isoforms and the amine oxidase activity of the enzymes are measured after the addition and subsequent oxidation of the luminogenic substrate (e.g., with the MAO-Glo assay kit from Promega). The IC50 can be calculated, for example, by fitting the dose response curve using a 4-parameter non-linear regression routine.
(§2) Amine oxidase activity of recombinant hSSAO, hMAO-A, and hMAO-B isoforms are measured using the MAO-Glo assay kit (Promega, V1402). Ten nL test compounds (with DMSO as vehicle, 0.1% v/v for hSSAO, hMAO-A and hMAO-B) were added into assay plates by Echo, and pre-incubated with 5 μL of enzyme for 30 mins at room temperature before the addition of 5 μL of luminogenic substrate. The substrate concentration is 40 μM for human recombinant SSAO, 40 μM for human recombinant MAO-A, and 4 μM for human recombinant MAO-B. The hSSAO and hMAO-A assays were conducted in the MAO-A reaction buffer in the kit, and the MAO-B assay was conducted in the MAO-B reaction buffer. Oxidation of the substrate was conducted for 1 hr, before the addition of detecting reagent according the manufacture's protocol. The IC50 value of the tested compounds was calculated by fitting the dose response curve using a 4-parameter non-linear regression routine.

The next experiment deals with recombinant hMAO-A (Homo sapiens (Human), UniProt P21397). The experiment is described as follows: MAO-A activity assay (MAO-Glo assay kit). As to conditions: 40 μM substrate, 30 mins pre-incubation. The method, then:
as §1, §2

The next experiment deals with recombinant hMAO-B (Homo sapiens (Human), UniProt P27338). The experiment is described as follows: MAO-B activity assay (MAO-Glo assay kit). The conditions noted are these: 4 μM substrate, 30 mins pre-incubation. The protocol: as §1, §2
Chain of recombinant hMAO-B (P27338 whole entry): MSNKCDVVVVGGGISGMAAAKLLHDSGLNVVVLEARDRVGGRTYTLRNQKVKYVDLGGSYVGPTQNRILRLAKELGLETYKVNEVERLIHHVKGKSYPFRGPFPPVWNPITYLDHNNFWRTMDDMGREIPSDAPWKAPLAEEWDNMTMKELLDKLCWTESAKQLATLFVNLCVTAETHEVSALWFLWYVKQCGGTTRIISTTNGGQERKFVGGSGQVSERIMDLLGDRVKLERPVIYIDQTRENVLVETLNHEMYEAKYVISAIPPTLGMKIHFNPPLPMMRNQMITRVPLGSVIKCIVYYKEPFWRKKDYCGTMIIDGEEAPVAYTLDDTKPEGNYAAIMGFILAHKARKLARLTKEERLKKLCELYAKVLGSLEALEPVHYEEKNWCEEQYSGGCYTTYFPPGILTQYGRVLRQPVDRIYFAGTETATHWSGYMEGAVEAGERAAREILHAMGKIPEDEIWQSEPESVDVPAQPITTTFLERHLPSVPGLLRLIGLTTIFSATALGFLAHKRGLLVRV

Chain of recombinant hSSAO (Q16853 whole entry, canonical isoform): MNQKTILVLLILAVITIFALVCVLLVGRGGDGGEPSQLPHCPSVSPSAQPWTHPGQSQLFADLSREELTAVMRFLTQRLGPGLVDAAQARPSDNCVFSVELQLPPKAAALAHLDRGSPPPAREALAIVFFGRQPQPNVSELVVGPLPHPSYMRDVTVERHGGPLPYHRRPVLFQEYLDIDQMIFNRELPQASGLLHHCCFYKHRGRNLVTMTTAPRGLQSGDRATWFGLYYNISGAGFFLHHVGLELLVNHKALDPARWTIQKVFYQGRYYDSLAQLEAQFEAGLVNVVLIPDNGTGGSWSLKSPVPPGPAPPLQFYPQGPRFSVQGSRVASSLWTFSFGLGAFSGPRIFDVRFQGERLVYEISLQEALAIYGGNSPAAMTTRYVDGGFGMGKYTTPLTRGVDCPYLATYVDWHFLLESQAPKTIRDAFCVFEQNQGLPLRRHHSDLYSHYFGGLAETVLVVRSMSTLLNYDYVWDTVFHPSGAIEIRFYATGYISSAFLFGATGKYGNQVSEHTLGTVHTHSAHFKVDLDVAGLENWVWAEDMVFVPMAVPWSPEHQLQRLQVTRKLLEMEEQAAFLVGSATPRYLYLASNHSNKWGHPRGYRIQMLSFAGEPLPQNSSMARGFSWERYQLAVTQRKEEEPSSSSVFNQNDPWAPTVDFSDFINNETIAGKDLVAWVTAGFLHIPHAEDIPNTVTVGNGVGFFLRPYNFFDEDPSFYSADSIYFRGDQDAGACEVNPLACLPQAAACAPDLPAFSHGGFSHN
Chain of recombinant hMAO-A (P21397 whole entry): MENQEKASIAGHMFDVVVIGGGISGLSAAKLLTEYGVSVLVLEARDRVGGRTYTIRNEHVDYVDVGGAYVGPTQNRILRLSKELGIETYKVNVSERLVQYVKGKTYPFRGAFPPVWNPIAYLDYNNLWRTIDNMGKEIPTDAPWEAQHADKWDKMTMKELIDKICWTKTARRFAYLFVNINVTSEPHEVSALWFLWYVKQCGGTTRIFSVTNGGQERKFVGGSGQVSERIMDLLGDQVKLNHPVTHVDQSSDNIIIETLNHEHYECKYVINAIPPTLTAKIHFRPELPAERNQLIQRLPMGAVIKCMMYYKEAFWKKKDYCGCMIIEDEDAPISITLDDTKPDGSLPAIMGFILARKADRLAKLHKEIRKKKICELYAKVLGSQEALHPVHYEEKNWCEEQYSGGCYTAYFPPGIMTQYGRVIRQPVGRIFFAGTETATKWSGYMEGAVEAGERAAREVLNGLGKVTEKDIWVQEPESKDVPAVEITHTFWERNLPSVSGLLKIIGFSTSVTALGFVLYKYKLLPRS

For `CS(=O)(=O)N1CCC(CS(=O)(=O)c2ccc(OC/C(=C/F)CN)cc2)CC1` [Compound 38, (E)-3-fluoro-2-((4-(((1-(methylsulfonyl)piperidin-4-yl)methyl)sulfonyl)phenoxy)methyl) prop-2-en-1-amine], the IC50 is < 20 nM at recombinant hSSAO, < 10 µM on recombinant hMAO-A and < 10 µM on recombinant hMAO-B.

Take `CC(C)(C)CC(=O)N1CCC(CS(=O)(=O)c2ccc(OC/C(=C/F)CN)cc2)CC1` [Compound 42, (E)-1-(4-(((4-((2-(aminomethyl)-3-fluoroallyl)oxy)phenyl)sulfonyl)methyl)piperidin-1-yl)-3,3-dimethylbutan-1-one]: the IC50 was 20 to 100 nM at recombinant hSSAO, > 30 µM on recombinant hMAO-A and > 30 µM on recombinant hMAO-B.

For the molecule `NC/C(=C\F)COc1ccc(S(=O)(=O)CC2CCN(C(=O)C34CC5CC(CC(C5)C3)C4)CC2)cc1` [Compound 43, (E)-adamantan-1-yl(4-(((4-((2-(aminomethyl)-3-fluoroallyl)oxy)phenyl)sulfonyl)methyl)piperidin-1-yl)methanone], the values for the IC50 at recombinant hSSAO, at recombinant hMAO-A and on recombinant hMAO-B were 100 to 500 nM, 10 to 30 µM and 10 to 30 µM, respectively.

Take `NC/C(=C\F)COc1ccc(S(=O)(=O)Cc2cccc(C(=O)N3CCCC3)c2)cc1` [Compound 47, (E)-(3-(((4-((2-(aminomethyl)-3-fluoroallyl)oxy)phenyl)sulfonyl)methyl)phenyl)(pyrrolidin-1-yl)methanone]: the IC50 at recombinant hSSAO was 100 to 500 nM; on recombinant hMAO-A, > 30 µM; on recombinant hMAO-B, > 30 µM.

As for `NC/C(=C\F)COc1ccc(S(=O)(=O)CC2CCN(C(=O)CC3CC3)CC2)cc1` [Compound 48, (E)-1-(4-(((4-((2-(aminomethyl)-3-fluoroallyl)oxy)phenyl)sulfonyl)methyl)piperidin-1-yl)-2-cyclopropylethan-1-one], the IC50 at recombinant hSSAO was 20 to 100 nM; at recombinant hMAO-A, > 30 µM; at recombinant hMAO-B, > 30 µM.

As to `NC/C(=C\F)COc1ccc(S(=O)(=O)CC2CCN(C(=O)C3(C(F)(F)F)CC3)CC2)cc1` [Compound 49, (E)-(4-(((4-((2-(aminomethyl)-3-fluoroallyl)oxy)phenyl)sulfonyl)methyl)piperidin-1-yl)(1-(trifluoromethyl)cyclopropyl) methanone], the IC50 was 20 to 100 nM at recombinant hSSAO, > 30 µM on recombinant hMAO-A and > 30 µM at recombinant hMAO-B.

In the case of `NC/C(=C\F)COc1ccc(S(=O)(=O)CC2CCN(C(=O)C3CCC3)CC2)cc1` [Compound 50, (E)-(4-(((4-((2-(aminomethyl)-3-fluoroallyl)oxy)phenyl)sulfonyl)methyl)piperidin-1-yl)(cyclobutyl)methanone], the IC50 at recombinant hSSAO was 20 to 100 nM; on recombinant hMAO-A, > 30 µM; at recombinant hMAO-B it was > 30 µM.

With `NC/C(=C\F)COc1ccc(S(=O)(=O)CC2CCN(C(=O)C3CC(F)(F)C3)CC2)cc1` [Compound 51, (E)-(4-(((4-((2-(aminomethyl)-3-fluoroallyl)oxy)phenyl)sulfonyl)methyl)piperidin-1-yl)(3,3-difluorocyclobutyl)methanone], the IC50 on recombinant hSSAO is 20 to 100 nM; at recombinant hMAO-A, > 30 µM; on recombinant hMAO-B, > 30 µM.

In the case of `CC1(CS(=O)(=O)c2ccc(OC/C(=C/F)CN)cc2)CCN(C(=O)C(C)(C)C)CC1` [Compound 54, (E)-1-(4-(((4-((2-(aminomethyl)-3-fluoroallyl)oxy)phenyl)sulfonyl)methyl)-4-methylpiperidin-1-yl)-2,2-dimethylpropan-1-one], the 50% inhibitory concentration (IC50) on recombinant hSSAO is 20 to 100 nM; at recombinant hMAO-A, > 30 µM; at recombinant hMAO-B, > 30 µM.

As to `CC1(CS(=O)(=O)c2ccc(OC/C(=C/F)CN)cc2)CCN(C(=O)C2(C(F)(F)F)CC2)CC1` [Compound 55, (E)-(4-(((4-((2-(aminomethyl)-3-fluoroallyl)oxy)phenyl)sulfonyl)methyl)-4-methylpiperidin-1-yl)(1-(trifluoromethyl)cyclopropyl) methanone], the values for the IC50 on recombinant hSSAO, at recombinant hMAO-A and on recombinant hMAO-B were 20 to 100 nM, > 30 µM and 10 to 30 µM, respectively.

For `NC/C(=C\F)COc1ccc(S(=O)(=O)CC2CCOCC2)c(Cl)c1` [compound 8, (E)-2-((3-chloro-4-(((tetrahydro-2H-pyran-4-yl)methyl)sulfonyl)phenoxy)methyl)-3-fluoroprop-2-en-1-amine], the IC50 at recombinant hSSAO lay in the range of 20 to 100 nM; at recombinant hMAO-A, 10 to 30 µM.

For the molecule `N#CC1(CS(=O)(=O)c2ccc(OC/C(=C/F)CN)cc2)CCOCC1` [compound 12, (E)-4-(((4-((2-(aminomethyl)-3-fluoroallyl)oxy)phenyl)sulfonyl)methyl)tetrahydro-2H-pyran-4-carbonitrile], the IC50 on recombinant hSSAO is 20 to 100 nM; at recombinant hMAO-A, 10 to 30 µM.

Turning to `NC/C(=C\F)COc1ccc(S(=O)(=O)CC23CCC(O)(CC2)CC3)cc1` [compound 17, (E)-4-(((4-((2-(aminomethyl)-3-fluoroallyl)oxy)phenyl)sulfonyl)methyl)bicyclo[2.2.2]octan-1-ol], the IC50 at recombinant hSSAO was in the range of 20 to 100 nM; at recombinant hMAO-B, 10 to 30 µM.

With `NC/C(=C\F)COc1ccc(S(=O)(=O)COCC2CCN(C(=O)C3(C(F)(F)F)CC3)CC2)cc1` [compound 35, (E)-(4-((((4-((2-(aminomethyl)-3-fluoroallyl)oxy)phenyl)sulfonyl)methoxy)methyl)piperidin-1-yl)(1-(trifluoromethyl)cyclopropyl)methanone], the IC50 at recombinant hSSAO fell in the range of 20 to 100 nM; on recombinant hMAO-B it was 10 to 30 µM.

Regarding `NC/C(=C\F)COc1ccc(S(=O)(=O)CC2CCN(C(=O)C34CC(F)(C3)C4)CC2)cc1` [compound 40, (E)-(4-(((4-((2-(aminomethyl)-3-fluoroallyl)oxy)phenyl)sulfonyl)methyl)piperidin-1-yl)(3-fluorobicyclo[1.1.1]pentan-1-yl)methanone], the IC50 at recombinant hSSAO lay in the range of 20 to 100 nM; on recombinant hMAO-A, 10 to 30 µM.

For the molecule `CC1(CS(=O)(=O)c2ccc(OC/C(=C/F)CN)cc2)CCN(C(=O)C2(C)CC2)CC1` [compound 57, (E)-(4-(((4-((2-(aminomethyl)-3-fluoroallyl)oxy)phenyl)sulfonyl)methyl)-4-methylpiperidin-1-yl)(1-methylcyclopropyl)methanone], the IC50 at recombinant hSSAO lay within 20 to 100 nM; at recombinant hMAO-A it was 10 to 30 µM.

As for `CC1CCN(C23CCC(CS(=O)(=O)c4ccc(OC/C(=C/F)CN)cc4)(CC2)CC3)C1=O` (centres unmarked) [compound 83, (E)-1-(4-(((4-((2-(aminomethyl)-3-fluoroallyl)oxy)phenyl)sulfonyl)methyl)bicyclo[2.2.2]octan-1-yl)-3-methylpyrrolidin-2-one], the IC50 at recombinant hMAO-B fell in the range of 10 to 30 µM.

Regarding `NC/C(=C\F)COc1ccc(S(=O)(=O)Cc2ccc(C(=O)NC3CCC3)c(C(F)(F)F)c2)cc1` [compound 89, (E)-4-(((4-((2-(aminomethyl)-3-fluoroallyl)oxy)phenyl)sulfonyl)methyl)-N-cyclobutyl-2-(trifluoromethyl)benzamide], the IC50 on recombinant hSSAO was in the range of 100 to 500 nM; on recombinant hMAO-B, 10 to 30 µM.

Take `CC(C)C(=O)N(C)CC(C)(C)CS(=O)(=O)c1ccc(OC/C(=C/F)CN)cc1` [compound 96, (E)-N-(3-((4-((2-(aminomethyl)-3-fluoroallyl)oxy)phenyl)sulfonyl)-2,2-dimethylpropyl)-N-methylisobutyramide]: the IC50 on recombinant hMAO-B lay within 10 to 30 µM.

Regarding `CCN(CC(C)(C)CS(=O)(=O)c1ccc(OC/C(=C/F)CN)cc1)C(=O)C(C)C` [compound 98, (E)-N-(3-((4-((2-(aminomethyl)-3-fluoroallyl)oxy)phenyl)sulfonyl)-2,2-dimethylpropyl)-N-ethylisobutyramide], the IC50 lay in the range of 20 to 100 nM at recombinant hSSAO and 10 to 30 µM on recombinant hMAO-B.

Turning to `CC(C)C(=O)N1CCC(CS(=O)(=O)c2ccc(OC/C(=C/F)CN)cc2)C1` (centres unmarked) [compound 99, (E)-1-(3-(((4-((2-(aminomethyl)-3-fluoroallyl)oxy)phenyl)sulfonyl)methyl)pyrrolidin-1-yl)-2-methylpropan-1-one], the IC50 on recombinant hSSAO is 20 to 100 nM; at recombinant hMAO-A, 10 to 30 µM.

For `CC(C)(C)C(=O)N1CCN(CS(=O)(=O)c2ccc(OC/C(=C/F)CN)cc2)C(=O)C1` [compound 133, (E)-1-(((4-((2-(aminomethyl)-3-fluoroallyl)oxy)phenyl)sulfonyl)methyl)-4-pivaloylpiperazin-2-one], the results for the IC50 at recombinant hSSAO and on recombinant hMAO-A were 100 to 500 nM and 10 to 30 µM, respectively.

Turning to `CC1(C(=O)N2CCN(CS(=O)(=O)c3ccc(OC/C(=C/F)CN)cc3)C(=O)C2)CCC1` [compound 134, (E)-1-(((4-((2-(aminomethyl)-3-fluoroallyl)oxy)phenyl)sulfonyl)methyl)-4-(1-methylcyclobutane-1-carbonyl)piperazin-2-one], the results for the IC50 on recombinant hSSAO and on recombinant hMAO-A were 100 to 500 nM and 10 to 30 µM, respectively.

Take `CC(C)(C)C(=O)NC12CCC(CS(=O)(=O)c3ccc(OC/C(=C/F)CN)cc3)(CC1)C2` [compound 145, (E)-N-(4-(((4-((2-(aminomethyl)-3-fluoroallyl)oxy)phenyl)sulfonyl)methyl)bicyclo[2.2.1]heptan-1-yl)pivalamide]: the figures for the IC50 on recombinant hSSAO and on recombinant hMAO-B were 20 to 100 nM and 10 to 30 µM, respectively.
